Source: PubChem BioAssay (NCI)
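In this assay, cells in 96-well plates receive the compound at five concentrations for 48 hours. Endpoints are linearly interpolated between the surrounding concentrations. GI50 is the concentration that inhibits growth by half. Definition used: TGI = concentration required for complete inhibition of growth.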

What was measured:
Test in all cases: inhibition of tumour cell growth, NCI panel, 48 h
[1] = tested on: A549 NSCLC
[2] = tested on: SN12C renal
[3] = tested on: SK-MEL-28 melanoma
[4] = tested on: EKVX NSCLC
[5] = tested on: NCI-H460 lung
[6] = tested on: COLO 205 colon
[7] = tested on: SNB-19 CNS
[8] = tested on: NCI/ADR-RES ovarian
[9] = tested on: HCT-116 colon
[10] = tested on: UO-31 renal
[11] = tested on: MDA-MB-231 breast
[12] = tested on: TK-10 renal
[13] = tested on: OVCAR-8 ovarian
[14] = tested on: OVCAR-3 ovarian
[15] = tested on: K-562 leukemia
[16] = tested on: A498 renal
[17] = tested on: NCI-H23 lung
[18] = tested on: MOLT-4 leukemia
[19] = tested on: M14 melanoma
[20] = tested on: UACC-62 melanoma
[21] = tested on: OVCAR-4 ovarian
[22] = tested on: CCRF-CEM leukemia
[23] = tested on: SF-295 CNS
[24] = tested on: SF-539 CNS
[25] = tested on: SW-620 colon
[26] = tested on: HOP-62 NSCLC
[27] = tested on: SF-268 CNS
[28] = tested on: RXF 393 renal
[29] = tested on: IGROV1 ovarian
[30] = tested on: SK-MEL-2 melanoma
[31] = tested on: CAKI-1 renal
[32] = tested on: 786-0 renal
[33] = tested on: OVCAR-5 ovarian
[34] = tested on: PC-3 prostate
[35] = tested on: HCC-2998 colon
[36] = tested on: SK-MEL-5 melanoma
[37] = tested on: NCI-H226 lung
[38] = tested on: NCI-H522 lung
[39] = tested on: HL-60(TB) leukemia
[40] = tested on: MDA-MB-435
[41] = tested on: RPMI-8226 leukemia
[42] = tested on: MALME-3M melanoma
[43] = tested on: BT-549 breast
[44] = tested on: LOX IMVI melanoma
[45] = tested on: T-47D breast
[46] = tested on: SNB-75 CNS
[47] = tested on: DU-145 prostate
[48] = tested on: HCT-15 colon
[49] = tested on: SR leukemia
[50] = tested on: MCF7 breast
[51] = tested on: HT29 colon
[52] = tested on: HS 578T breast
[53] = tested on: SK-OV-3 ovarian
[54] = tested on: U251 CNS
[55] = tested on: KM12 colon
[56] = tested on: ACHN renal
[57] = tested on: HOP-92 NSCLC

SMILES: COC(=O)COc1ccccc1/C=C1\N=C(c2ccccc2)N(c2cc(C(F)(F)F)ccc2Cl)C1=O
- GI50 [1]: 97.4 µM
- TGI [1]: > 100 µM
- GI50 [2]: 60.5 µM
- TGI [2]: > 100 µM
- GI50 [3]: 47.6 µM
- TGI [3]: > 100 µM
- GI50 [4]: > 100 µM
- TGI [4]: > 100 µM
- GI50 [5]: 59.6 µM
- TGI [5]: > 100 µM
- GI50 [6]: 31.7 µM
- TGI [6]: > 100 µM
- GI50 [7]: 43.5 µM
- TGI [7]: > 100 µM
- GI50 [8]: 45.8 µM
- TGI [8]: > 100 µM
- GI50 [9]: 38.2 µM
- TGI [9]: > 100 µM
- GI50 [10]: 22.3 µM
- TGI [10]: 52.8 µM
- GI50 [11]: > 100 µM
- TGI [11]: > 100 µM
- GI50 [12]: 56.3 µM
- TGI [12]: > 100 µM
- GI50 [13]: 37.3 µM
- TGI [13]: > 100 µM
- GI50 [14]: 34 µM
- TGI [14]: 98.6 µM
- GI50 [15]: 33.8 µM
- TGI [15]: > 100 µM
- GI50 [16]: > 100 µM
- TGI [16]: > 100 µM
- GI50 [17]: > 100 µM
- TGI [17]: > 100 µM
- GI50 [18]: 23 µM
- TGI [18]: 62.3 µM
- GI50 [19]: 37.9 µM
- TGI [19]: > 100 µM
- GI50 [20]: > 100 µM
- TGI [20]: > 100 µM
- GI50 [21]: 39.5 µM
- TGI [21]: > 100 µM
- GI50 [22]: 27.6 µM
- TGI [22]: 74.4 µM
- GI50 [23]: > 100 µM
- TGI [23]: > 100 µM
- GI50 [24]: 42.7 µM
- TGI [24]: > 100 µM
- GI50 [25]: 38.8 µM
- TGI [25]: > 100 µM
- GI50 [26]: 45 µM
- TGI [26]: > 100 µM
- GI50 [27]: 29.8 µM
- TGI [27]: > 100 µM
- GI50 [28]: 71.6 µM
- TGI [28]: > 100 µM
- GI50 [29]: 57 µM
- TGI [29]: > 100 µM
- GI50 [30]: 28.5 µM
- TGI [30]: > 100 µM
- GI50 [31]: 79 µM
- TGI [31]: > 100 µM
- GI50 [32]: 91.2 µM
- TGI [32]: > 100 µM
- GI50 [33]: > 100 µM
- TGI [33]: > 100 µM
- GI50 [34]: 32.5 µM
- TGI [34]: > 100 µM
- GI50 [35]: 36.3 µM
- TGI [35]: > 100 µM
- GI50 [36]: 42.9 µM
- TGI [36]: > 100 µM
- GI50 [37]: 66.6 µM
- TGI [37]: > 100 µM
- GI50 [38]: 38.2 µM
- TGI [38]: > 100 µM
- GI50 [39]: 31.1 µM
- TGI [39]: > 100 µM
- GI50 [40]: 33.1 µM
- TGI [40]: > 100 µM
- GI50 [41]: 24.9 µM
- TGI [41]: 72.7 µM
- GI50 [42]: 27.5 µM
- TGI [42]: 92.5 µM
- GI50 [43]: 28.4 µM
- TGI [43]: 86.2 µM
- GI50 [44]: 24.9 µM
- TGI [44]: 73.6 µM
- GI50 [45]: 29.1 µM
- TGI [45]: > 100 µM
- GI50 [46]: 34.4 µM
- TGI [46]: > 100 µM
- GI50 [47]: 22.1 µM
- TGI [47]: 47.1 µM
- GI50 [48]: > 100 µM
- TGI [48]: > 100 µM
- GI50 [49]: 24 µM
- TGI [49]: 70.5 µM
- GI50 [50]: 39.1 µM
- TGI [50]: > 100 µM
- GI50 [51]: 73.2 µM
- TGI [51]: > 100 µM
- GI50 [52]: 35.6 µM
- TGI [52]: > 100 µM
- GI50 [53]: 57.7 µM
- TGI [53]: > 100 µM
- GI50 [54]: 55.9 µM
- TGI [54]: > 100 µM
- GI50 [55]: 41.7 µM
- TGI [55]: > 100 µM
- GI50 [56]: 57 µM
- TGI [56]: > 100 µM
- GI50 [57]: 33.2 µM
- TGI [57]: > 100 µM
